# What was measured:
# [1] = cited from earlier work
# [2] = Storage stability of crystalline form B by HPLC (0° C., 20° C., 40° C.); assay type: physicochemical
# Method: (§1) Column: 4.6×250 mm 5 μm C18 column; flow rate: 2 ml/min; injection volume: 10 μl; column temperature: 35° C.; detection wavelength: 217 nm; mobile phase: acetonitrile/water/trifluoroacetic acid; Elution condition: water (60%): acetonitrile (40%): trifluoroacetic acid (0.1%); detection limit: 10 ng.
# (§2) Compound I from example 2, example 3 and example 4 were obtained, and subjected to stability test at 40° C., respectively. […] Therefore, crystalline form B of compound I prepared by the method of the present invention has unique stability.
# [3] = Stability test at 40° C., HPLC purity; assay type: physicochemical
# Method: As used herein, “HPLC purity” refers to the percentage of the peak area of compound I obtained by area normalization method in the sum of all the peak area in HPLC detection applied to compound I, according to the obtained chromatogram.
# as §1
# The purity mentioned in the following Examples is HPLC purity.
# as §2
structure (smiles),measurement,setting,value
CCCCC[C@H](O)CC[C@@H]1[C@H]2Cc3cccc(OCC(=O)O)c3C[C@H]2C[C@H]1O [Treprostinil],Stability under physiological conditions,[1],stable
CCCCC[C@H](O)CC[C@@H]1[C@H]2Cc3cccc(OCC(=O)O)c3C[C@H]2C[C@H]1O [crystalline form B of compound I],Degradation on storage (HPLC),[2]; stored at 0° C. for 12 months,did not degrade at all
same,Degradation on storage (HPLC),[2]; stored at 20° C. for 6 months,did not degrade at all
same,Degradation on storage (HPLC),[2]; stored at 40° C. for 2 months,did not degrade at all
CCCCC[C@H](O)CC[C@@H]1[C@H]2Cc3cccc(OCC(=O)O)c3C[C@H]2C[C@H]1O [Example 4],Purity at 0 day (40° C.),"[3]; stability test at 40° C., 0 day (start)",99.90%
same,Purity at 10 day (40° C.),"[3]; stored at 40° C., 10 day",99.91%
same,Purity at 30 day (40° C.),"[3]; stored at 40° C., 30 day",99.89%
same,Purity at 90 day (40° C.),"[3]; stored at 40° C., 90 day",99.88%
